Converted amounts (≈) assume the structure as drawn. Bridge positions count the residues as written; N and C are the ends. Square brackets hold non-standard residues; d marks the D form. Peptide text beside a SMILES is read from it. ξ: configuration not given here. 2Nal = N[C@@H](Cc1ccc2ccccc2c1)C(=O)O; ξNle = CCCCC(N)C(=O)O; ξDab = NCCC(N)C(=O)O; GABA = NCCCC(=O)O
Experiments:
[1] = tested on: Klebsiella pneumoniae; assay: Antimicrobial activity against multidrug-resistant Klebsiella pneumoniae ATCC 700603 by tube dilution method; format: functional
[2] = Toxicity in human erythrocytes assessed as hemolysis after 1 hr; format: cell-based, Erythrocyte
[3] = Toxicity in human erythrocytes assessed as hemolysis at 150 uM after 1 hr; format: cell-based, Erythrocyte; conditions: read-out: Activity
[4] = tested on: Escherichia coli; assay: Antimicrobial activity against Escherichia coli ATCC 25922 by tube dilution method; format: functional
[5] = tested on: Staphylococcus aureus; assay: Antimicrobial activity against methicillin-resistant Staphylococcus aureus ATCC 33591 by tube dilution method; format: functional
[6] = tested on: Enterococcus faecium; assay: Antimicrobial activity against vancomycin-resistant Enterococcus faecium ATCC 700221 by tube dilution method; format: functional
[7] = tested on: Acinetobacter baumannii; assay: Antimicrobial activity against multidrug-resistant Acinetobacter baumannii ATCC BAA-1605 by tube dilution method; format: functional
[8] = tested on: Candida albicans; assay: Antifungal activity against Candida albicans ATCC 200955 by tube dilution method; format: functional
[9] = tested on: Pseudomonas aeruginosa; assay: Antimicrobial activity against Pseudomonas aeruginosa ATCC 27853 by tube dilution method; format: functional

| Structure (SMILES) | MIC [1] | EC50 at 1 hr [2] | hemolysis at 1 h, 150 µM [3] | MIC [4] | MIC [5] | MIC [6] | MIC [7] | MIC [8] | MIC [9] |
| --- | --- | --- | --- | --- | --- | --- | --- | --- | --- |
| CC(C)C[C@@H]1NC(=O)CCCNC(=O)C(N)CCNC(=O)[C@H](Cc2ccc3ccccc3c2)NC(=O)[C@H](CCCNC(=N)N)NC(=O)[C@H](CC(C)C)NC(=O)[C@H](Cc2ccc3ccccc3c2)NC(=O)[C@H](CCCNC(=N)N)NC1=O (stereo not given in full) (H-[ξDab][GABA]LR[2Nal]LR[2Nal]; lactam 1-C) | 32 µM (≈ 35.8 µg/mL) | 255 µM | 12% | 32 µM (≈ 35.8 µg/mL) | 16 µM (≈ 17.9 µg/mL) | 8 µM (≈ 8.95 µg/mL) | 32 µM (≈ 35.8 µg/mL) | 16 µM (≈ 17.9 µg/mL) | 64 µM (≈ 71.6 µg/mL) |
| CC(C)C[C@@H]1NC(=O)CNC(=O)[C@H](Cc2ccccc2)NC(=O)[C@H](CCCCN)NC(=O)[C@H](CC(C)C)NC(=O)[C@H](Cc2ccccc2)NC(=O)[C@H](CCCCN)NC1=O (cyclo(FGLKFLK)) | > 128 µM | > 150 µM | < 8% | 128 µM (≈ 107 µg/mL) | > 128 µM | 128 µM (≈ 107 µg/mL) | 128 µM (≈ 107 µg/mL) | > 128 µM | > 128 µM |
| CC(C)C[C@@H]1NC(=O)CNC(=O)[C@H](Cc2c[nH]c3ccccc23)NC(=O)[C@H](CCCCN)NC(=O)[C@H](CC(C)C)NC(=O)[C@H](Cc2c[nH]c3ccccc23)NC(=O)[C@H](CCCCN)NC1=O (cyclo(GLKWLKW)) | > 128 µM | > 150 µM | < 8% | 128 µM (≈ 117 µg/mL) | > 128 µM | 128 µM (≈ 117 µg/mL) | 128 µM (≈ 117 µg/mL) | > 128 µM | > 128 µM |
| CC(C)C[C@@H]1NC(=O)CNC(=O)[C@H](Cc2c[nH]c3ccccc23)NC(=O)[C@H](CCCNC(=N)N)NC(=O)[C@H](CC(C)C)NC(=O)[C@H](Cc2c[nH]c3ccccc23)NC(=O)[C@H](CCCNC(=N)N)NC1=O (cyclo(GLRWLRW)) | > 128 µM | > 150 µM | < 8% | > 128 µM | 128 µM (≈ 124 µg/mL) | 64 µM (≈ 62 µg/mL) | > 128 µM | > 128 µM | > 128 µM |
| CC(C)C[C@@H]1NC(=O)CNC(=O)[C@H](Cc2ccc3ccccc3c2)NC(=O)[C@H](CCCCN)NC(=O)[C@H](CC(C)C)NC(=O)[C@H](Cc2ccc3ccccc3c2)NC(=O)[C@H](CCCCN)NC1=O (cyclo([2Nal]GLK[2Nal]LK)) | > 128 µM | > 150 µM | 13% | 128 µM (≈ 120 µg/mL) | 32 µM (≈ 29.9 µg/mL) | 16 µM (≈ 14.9 µg/mL) | > 128 µM | 64 µM (≈ 59.8 µg/mL) | 128 µM (≈ 120 µg/mL) |
| CC(C)C[C@@H]1NC(=O)CNC(=O)[C@H](Cc2ccc3ccccc3c2)NC(=O)[C@H](CCCNC(=N)N)NC(=O)[C@H](CC(C)C)NC(=O)[C@H](Cc2ccc3ccccc3c2)NC(=O)[C@H](CCCCN)NC1=O (cyclo([2Nal]GLK[2Nal]LR)) | > 128 µM | > 150 µM | 14% | 128 µM (≈ 123 µg/mL) | 32 µM (≈ 30.8 µg/mL) | 16 µM (≈ 15.4 µg/mL) | > 128 µM | 32 µM (≈ 30.8 µg/mL) | 128 µM (≈ 123 µg/mL) |
| CC(C)C[C@@H]1NC(=O)CNC(=O)[C@H](Cc2ccc3ccccc3c2)NC(=O)[C@H](CCCCN)NC(=O)[C@H](CC(C)C)NC(=O)[C@H](Cc2ccc3ccccc3c2)NC(=O)[C@H](CCCNC(=N)N)NC1=O (cyclo([2Nal]GLR[2Nal]LK)) | > 128 µM | > 150 µM | 19% | 128 µM (≈ 123 µg/mL) | 32 µM (≈ 30.8 µg/mL) | 16 µM (≈ 15.4 µg/mL) | > 128 µM | 32 µM (≈ 30.8 µg/mL) | 128 µM (≈ 123 µg/mL) |
| CC(C)C[C@@H]1NC(=O)CNC(=O)[C@H](Cc2ccc3ccccc3c2)NC(=O)[C@H](CCCNC(=N)N)NC(=O)[C@@H]2CCCN2C(=O)[C@H](Cc2ccc3ccccc3c2)NC(=O)[C@H](CCCNC(=N)N)NC1=O (cyclo([2Nal]GLR[2Nal]PR)) | > 128 µM | > 150 µM | < 8% | > 128 µM | 64 µM (≈ 62.3 µg/mL) | 32 µM (≈ 31.2 µg/mL) | > 128 µM | 128 µM (≈ 125 µg/mL) | > 128 µM |
| CC(C)C[C@@H]1NC(=O)CNC(=O)[C@H](Cc2ccc3ccccc3c2)NC(=O)[C@H](CCCNC(=N)N)NC(=O)[C@H]([C@@H](C)O)NC(=O)[C@H](Cc2ccc3ccccc3c2)NC(=O)[C@H](CCCNC(=N)N)NC1=O (cyclo([2Nal]GLR[2Nal]TR)) | > 128 µM | > 150 µM | < 8% | 128 µM (≈ 125 µg/mL) | 128 µM (≈ 125 µg/mL) | 128 µM (≈ 125 µg/mL) | > 128 µM | 128 µM (≈ 125 µg/mL) | > 128 µM |
| CCCCC1NC(=O)[C@H](Cc2ccc3ccccc3c2)NC(=O)[C@H](CCCNC(=N)N)NC(=O)[C@H](CC(C)C)NC(=O)CNC(=O)[C@H](Cc2ccc3ccccc3c2)NC(=O)[C@H](CCCNC(=N)N)NC1=O (stereo not given in full) (cyclo([2Nal]GLR[2Nal][ξNle]R)) | > 128 µM | > 150 µM | 35% | > 128 µM | 32 µM (≈ 31.7 µg/mL) | 16 µM (≈ 15.8 µg/mL) | > 128 µM | > 128 µM | > 128 µM |

— ChEMBL document CHEMBL4000149, “The effect of glycine replacement with flexible ω-amino acids on the antimicrobial and haemolytic activity of an amphipathic cyclic heptapeptide” (Eur J Med Chem, 2015)
